*1 amine or outer side, *2 acyl side, *3 side chain or, on linkers, in order; H or OH if unused. Where a SMILES comes first, the peptide text is derived from it. Bridges are numbered along the chain shown (N, C = ends). [ ]: non-standard residue; d: D form. The star is where a group is joined. ξ: configuration not given here. Thr(3ξ) = CC(O)[C@H](N)C(=O)O; NH(2-ClPh) = Clc1ccccc1N*; Dab = NCC[C@H](N)C(=O)O; CO = O=C([*:1])[*:2]; ξDab = NCCC(N)C(=O)O
Columns and labels:
[1] = Acute toxicity testing in rats; type: in vivo, Sprague-Dawley rat; settings: 1 mg/kg i.v.
Method: One female Sprague-Dawley rat was administered a 1 mg/kg dose of the test Compound 5. Clinical observations were taken immediately following the administration of compound and at 0.5, 1, 2 and 4 hours post-dose.

A. baumannii 1570 = experiment: MIC against the primary screening panel (broth microdilution); type: cell-based; design: key: A: a MIC value measurement that is the same as that observed for polymyxin B; a MIC value measured that is lower than the comparable value observed for polymxin B; a MIC value measured that is higher than the comparable value observed for polymyxin B; settings: class relative to polymyxin B
Method: (§1) Antibacterial potency can be assessed by broth microdilution according to CLSI guidelines, plates can be incubated at 37° C., and aeration (rotation at 200 rpm) can be employed. In some assays, surfactant (Survanta, Abbott Laboratories) can be added to give a final concentration of 1, 10 and 40% in caMHB. Native polymyxin A, polymyxin B and the comparator compound of Formula II (polymyxin B decapeptide with an o-chlorophenyl urea tail) were included for comparison.

[2] = tested on: K. pneumoniae 1800 (PMX-resistant); experiment: as above; type: cell-based; design: key: A: a MIC value measurement that is the same as that observed for polymyxin B; a MIC value measured that is lower than the comparable value observed for polymxin B; a MIC value measured that is higher than the comparable value observed for polymyxin B; settings: class relative to polymyxin B
Method: as §1

K. pneumoniae 933 = experiment: as above; type: cell-based; design: key: A: a MIC value measurement that is the same as that observed for polymyxin B; a MIC value measured that is lower than the comparable value observed for polymxin B; a MIC value measured that is higher than the comparable value observed for polymyxin B; settings: class relative to polymyxin B
Method: as §1

P. aeruginosa 44 [3] = experiment: as above; type: cell-based; design: key: A: a MIC value measurement that is the same as that observed for polymyxin B; a MIC value measured that is lower than the comparable value observed for polymxin B; a MIC value measured that is higher than the comparable value observed for polymyxin B; settings: class relative to polymyxin B
Method: as §1

A. baum = experiment: MIC50 and MIC90, panel of Gram negative bacterial strains (CLSI broth microdilution); type: cell-based, A. baumanni; design: key to A. baum MIC50 / A. baum MIC90: A: a measured MIC value equal to that of polymyxin B; a measured MIC value less than the corresponding MIC value measured for polymyxin B; a measured MIC value greater than the corresponding MIC value measured for polymyxin B; settings: for A. baum MIC50 / A. baum MIC90: class relative to polymyxin B, some strains multi-drug resistant
Method: (§2) The potency and spectrum of Compound 5 was studied using a panel of Gram negative bacterial strains.
(§3) MIC testing can be performed according to Clinical and Laboratory Standards Institute (CLSI) M7-A7 (2006) broth microdilution methods. Unless otherwise indicated, MIC values are provided in units of micrograms per milliliter.
(§4) One day prior to testing, individual colonies were isolated by streaking onto rich, non-selective Tryptic Soy agar with 5% lysed sheeps blood (TSAB) with incubation at 35-37° C. for 18-24 hours.
(§5) Cultures were prepared by touching 3-5 colonies into 3 mL of cation-adjusted Mueller Hinton Broth (caMHB) in a 14-mL tube (caMHB was prepared and sterilized according to manufacturer's specifications).
(§6) OD600 of growing cultures was measured and adjusted to approximately 10^5 colony forming units per mL (CFU/mL) in caMHB for MIC inoculation (approximately OD600 0.001).
(§7) Diluted cultures were used to inoculate 50 μL per well in broth microdilution assays (final volume 100 μl per well; compounds were prepared in two-fold dilutions).
(§8) Plates were incubated 16-20 hours at 37° C., with shaking at 200 rpm.
(§9) OD600 was determined for all wells. Growth was defined as OD600>0.1. MICs were defined as the lowest concentration producing no visible turbidity (OD600<0.1).

P. aeruginosa #44 = experiment: MICs for P. aeruginosa #44 in the presence of surfactant; type: cell-based; design: key: A: a MIC value measurement that is the same as that observed for polymyxin B; a MIC value measured that is lower than the comparable value observed for polymxin B; a MIC value measured that is higher than the comparable value observed for polymyxin B; settings: class relative to polymyxin B; for MIC P. aeruginosa #44, 10% surfactant: 10% surfactant (Survanta) in caMHB; for MIC P. aeruginosa #44, 40% surfactant: 40% surfactant (Survanta) in caMHB
Method: as §1

K. pneumoniae = experiment: MIC50-90 against small panels (n = 35); type: cell-based; design: key: A: a MIC value measurement that is the same as that observed for polymyxin B; a MIC value measured that is lower than the comparable value observed for polymxin B; a MIC value measured that is higher than the comparable value observed for polymyxin B; settings: small panel n = 35; class relative to polymyxin B
Source text: (§10) MIC's refer to the concentration of each antimicrobial agent required to inhibit the growth of a bacterial isolate, as well as the corresponding concentrations required to inhibit 50% and 90% of each group of microorganisms tested [MIC50 and MIC90, respectively, consistent with definitions in the “Instructions to Authors” for Antimicrobial Agents and Chemotherapy (Antimicrobial Agents and Chemotherapy, January 2010, p. 1-23, Vol. 54, No. 1, incorporated herein by reference)]. When only up to nine isolates of a species are tested, MIC's are reported as the MIC range of each antimicrobial agent tested. MIC values provided as numerical ranges for testing of a single bacterial strain indicate the range of MIC values obtained in repeated tests of the indicated bacteria strain.
as §1

A. baumannii = experiment: MIC50-90 against small panels (n = 35); type: cell-based; design: key: A: a MIC value measurement that is the same as that observed for polymyxin B; a MIC value measured that is lower than the comparable value observed for polymxin B; a MIC value measured that is higher than the comparable value observed for polymyxin B; settings: small panel n = 35; class relative to polymyxin B
Source text: as §10, §1

E. coli [4] = experiment: MIC50-90 against small panels (n = 35); type: cell-based; design: key: A: a MIC value measurement that is the same as that observed for polymyxin B; a MIC value measured that is lower than the comparable value observed for polymxin B; a MIC value measured that is higher than the comparable value observed for polymyxin B; settings: small panel n = 35; class relative to polymyxin B
Source text: as §10, §1

P. aeruginosa = experiment: MIC50-90 against small panels (n = 35); type: cell-based; design: key: A: a MIC value measurement that is the same as that observed for polymyxin B; a MIC value measured that is lower than the comparable value observed for polymxin B; a MIC value measured that is higher than the comparable value observed for polymyxin B; settings: small panel n = 35; class relative to polymyxin B
Source text: as §10, §1

P. aeruginosa 44 [5] = experiment: Neutropenic mouse lung infection model; type: in vivo; settings: for Lungs cleared within one log10 of limit of detection: mouse lung model, 8 through 20 mg/kg dose levels
Method: Compound of Formula (Ia) was tested in a murine thigh model. For the thigh model, female CD-1 mice were rendered neutropenic by IP injection on days −4 and −1 with 150 and 100 mg/kg cyclophosphamide, respectively. On day 0 mice were infected with 1×10^7 colony-forming units (cfu) of A. baumannii 1570 in one thigh muscle, and then administered compound SC in a dose ranging from 2 to 12 mg/kg at 1 and 6 hours post-infection.
The mouse lung model was run in the same manner as the thigh infection model, except that mice were infected IN with 1×10^7 cfu of P. aeruginosa 44 on day 0. Doses administered in the lung study ranged from 8 to 20 mg/kg. The ED−3log10 was based on cfu determination from the lung tissue 24 hours post-infection.

E. coli [6] = experiment: MIC50 and MIC90, panel of Gram negative bacterial strains (CLSI broth microdilution); type: cell-based; design: key to E. coli MIC50 / E. coli MIC90: A: a measured MIC value equal to that of polymyxin B; a measured MIC value less than the corresponding MIC value measured for polymyxin B; a measured MIC value greater than the corresponding MIC value measured for polymyxin B; settings: for E. coli MIC50 / E. coli MIC90: class relative to polymyxin B, some strains multi-drug resistant
Method: as §2, §3, §4, §5, §6, §7, §8, §9

P. aeru = experiment: as above; type: cell-based, P. Aeruginosa; design: key to P. aeru MIC50 / P. aeru MIC90: A: a measured MIC value equal to that of polymyxin B; a measured MIC value less than the corresponding MIC value measured for polymyxin B; a measured MIC value greater than the corresponding MIC value measured for polymyxin B; settings: for P. aeru MIC50 / P. aeru MIC90: class relative to polymyxin B, some strains multi-drug resistant
Method: as §2, §3, §4, §5, §6, §7, §8, §9

K. pneu = experiment: as above; type: cell-based, K. pneumonia; design: key to K. pneu MIC50 / K. pneu MIC90: A: a measured MIC value equal to that of polymyxin B; a measured MIC value less than the corresponding MIC value measured for polymyxin B; a measured MIC value greater than the corresponding MIC value measured for polymyxin B; settings: for K. pneu MIC50 / K. pneu MIC90: class relative to polymyxin B, some strains multi-drug resistant
Method: as §2, §3, §4, §5, §6, §7, §8, §9

CC(C)C[C@H]1NC(=O)[C@H](CCN)NC(=O)[C@@H](NC(=O)[C@@H](CCN)NC(=O)[C@@H](NC(=O)[C@H](CCN)NC(=O)[C@H]2C[C@@H]2c2ccccc2)C(C)O)CCNC(=O)[C@H](C(C)O)NC(=O)[C@H](CCN)NC(=O)[C@H](CCN)NC(=O)[C@H](C(C)O)NC1=O (single isomer, unassigned) [Compound 5]
Acute (anaphylactoid) observations ([1]; 1 female Sprague-Dawley rat): anaphylactoid response was observed | Clinical signs by 0.5 hours ([1]; female Sprague-Dawley rat): these signs diminished, but the rat remained hypoactive | Clinical signs by 1 hour ([1]; female Sprague-Dawley rat): no clinical signs and appeared normal | Clinical signs immediately following the dose ([1]; female Sprague-Dawley rat): flushed ears, abnormal gait, hypoactivity and squinty eyes | MIC A. baumannii 1570 (A. baumannii 1570): C | MIC K. pneumoniae 1800 (PMX-resistant) [2]: C | MIC K. pneumoniae 933 (K. pneumoniae 933): A | MIC P. aeruginosa 44 (P. aeruginosa 44 [3]): C | activity against A. baumanni isolates (A. baum): active | A. baum MIC50 (A. baum): C | A. baum MIC90 (A. baum): C | MIC P. aeruginosa #44, 0% surfactant (P. aeruginosa #44): C | MIC P. aeruginosa #44, 10% surfactant (P. aeruginosa #44): B | MIC P. aeruginosa #44, 40% surfactant (P. aeruginosa #44): B | K. pneumoniae MIC50 (K. pneumoniae): C | K. pneumoniae MIC90 (K. pneumoniae): C | A. baumannii MIC50 (A. baumannii): C | A. baumannii MIC90 (A. baumannii): C | E. coli MIC50 (E. coli [4]): C | E. coli MIC90 (E. coli [4]): A | P. aeruginosa MIC50 (P. aeruginosa): A | P. aeruginosa MIC90 (P. aeruginosa): C | Lungs cleared within one log10 of limit of detection (P. aeruginosa 44 [5]): Lungs cleared within one log10 of limit of detection | ED−3log10 (P. aeruginosa 44 [5]; neutropenic mouse lung, P. aeruginosa 44, SC, BID×1d, cfu 24 hours post-infection, experiment with Formula (Ia)): 6.35 mg/kg | activity against E. coli isolates (E. coli [6]): active | E. coli MIC50 (E. coli [6]): C | E. coli MIC90 (E. coli [6]): A | activity against P. Aeruginosa isolates (P. aeru): active | P. aeru MIC50 (P. aeru): A | P. aeru MIC90 (P. aeru): C | activity against K. pneumonia isolates (K. pneu): active | K. pneu MIC50 (K. pneu): C | K. pneu MIC90 (K. pneu): C

CC(C)C[C@@H]1NC(=O)[C@@H](Cc2ccccc2)NC(=O)[C@H](CCN)NC(=O)C(NC(=O)[C@H](CCN)NC(=O)[C@@H](NC(=O)[C@H](CCN)NC(=O)Nc2ccccc2Cl)C(C)O)CCNC(=O)[C@H](C(C)O)NC(=O)[C@H](CCN)NC(=O)C(CCN)NC1=O (stereo partly drawn) [Formula (II) comparator] ({NH(2-ClPh)-CO}-[Dab][Thr(3ξ)][Dab][ξDab][Dab][dF]L[ξDab][Dab][Thr(3ξ)]; lactam 4-C)
MIC A. baumannii 1570 (A. baumannii 1570): C | MIC K. pneumoniae 1800 (PMX-resistant) [2]: C | MIC K. pneumoniae 933 (K. pneumoniae 933): C | MIC P. aeruginosa 44 (P. aeruginosa 44 [3]): C | A. baum MIC50 (A. baum): C | A. baum MIC90 (A. baum): C | MIC P. aeruginosa #44, 0% surfactant (P. aeruginosa #44): C | MIC P. aeruginosa #44, 10% surfactant (P. aeruginosa #44): B | MIC P. aeruginosa #44, 40% surfactant (P. aeruginosa #44): A | K. pneumoniae MIC50 (K. pneumoniae): C | K. pneumoniae MIC90 (K. pneumoniae): C | A. baumannii MIC50 (A. baumannii): C | A. baumannii MIC90 (A. baumannii): C | E. coli MIC50 (E. coli [4]): C | E. coli MIC90 (E. coli [4]): C | P. aeruginosa MIC50 (P. aeruginosa): B | P. aeruginosa MIC90 (P. aeruginosa): A | Lungs cleared within one log10 of limit of detection (P. aeruginosa 44 [5]): not seen | E. coli MIC50 (E. coli [6]): C | E. coli MIC90 (E. coli [6]): C | P. aeru MIC50 (P. aeru; listed as 2): B and A | P. aeru MIC90 (P. aeru; listed as 2): A and C | K. pneu MIC50 (K. pneu): C | K. pneu MIC90 (K. pneu): C

Source: US8415307B1, “Antibiotic compositions for the treatment of gram negative infections” (priority 2010, dated 2013)
